Assay results taken from PMC10254852, “Design, Synthesis and Anticancer Evaluation of Nitroimidazole Radiosensitisers” (Molecules, 2023).
Read-outs that look alike come from different tables or passages of the source.

How the values were obtained:
FaDu cells = assay: In vitro cytotoxicity, 4 h exposure oxic/anoxic, 5-day regrowth, sulforhodamine B; type: cell-based; details: for IC50: Homo sapiens; for HCR: IC50(oxic)/IC50(anoxic)
From the text: (§1) This allowed derivation of hypoxia cytotoxicity ratios (HCR) as IC50(oxic)/IC50(anoxic) in an HCT116 subclone HCT116/54C and two HNSCC cell lines, FaDu and UT-SCC-74B (Table 2).
(§2) HCT116/54C is an HCT116 subline that originated from a mixed culture with UT-SCC-54C cells, which was supplied alongside UT-SCC-74B by Prof. Bradly Wouters (University Health Network, Toronto, ON, Canada). HCT116/54C and UT-SCC-74B cells were passaged in minimum essential media (MEM, ThermoFisher Scientific, Waltham, MA, USA) with 10% foetal calf serum (FCS, Moregate Biotech, Hamilton, New Zealand), 4.5 mg/mL D-glucose (Sigma-Aldrich, St. Louis, MO, USA) and 20 mM HEPES (Sigma-Aldrich). FaDu cells were sourced from American Type Culture Collection and cultured in αMEM (ThermoFisher Scientific) with 10% FCS. All cell lines were confirmed mycoplasma-free by PlasmoTest (InvivoGen, San Diego, CA, USA) and were derived from STR-authenticated cryopreserved stocks. Log-phase cells were seeded into 96-well plates at 800 cells/well for HCT116/54C and 1500 cells/well for FaDu. […] After drug washout, cells were grown and stained as for the oxic IC50 assays. The hypoxic cytotoxicity ratio HCR was determined as HCR = IC50(oxic)/IC50(anoxic).

HCT116/54C cells [1] = assay: as above; type: cell-based, human; details: HCT116/54C; for HCR: IC50(oxic)/IC50(anoxic); for IC50: Homo sapiens
From the text: as §1, §2

UT-SCC-74B cells = assay: as above; type: cell-based, human; details: for IC50: Homo sapiens; for HCR: IC50(oxic)/IC50(anoxic)
From the text: as §1, §2

HCT116/54C cells [2] = assay: In vitro radiosensitisation under anoxia, clonogenic survival; type: cell-based, human; details: compound 1 mM, radiation dose for 1% survival/radiation dose for 1% survival with compound, mean ± SEM
Description: Next, we evaluated in vitro radiosensitisation by using a representative subset of nitroimidazole compounds in HCT116/54C cells with a clonogenic survival endpoint. Radiosensitisation was determined by treating cells under anoxia with a range of radiation doses alone and with compounds at equimolar doses (1 mM). Sensitiser enhancement ratios (SER) were calculated as the ratio of radiation dose required for 1% clonogenic survival alone or with compound (Table 3).
Cells were seeded onto 96-well plates at 10^5 cells per well and allowed to attach for 2 h. […] The plates were irradiated (Eldorado 78 ^60Co teletherapy unit, ~2 Gy/min) with 15 Gy under anoxia at room temperature for SR experiments. A metal wedge placed on the top of the metal chamber was used to achieve a graduated radiation dose across the plate, varying from 7 to 29 Gy, calibrated by Fricke dosimetry with ammonium thiocyanate as previously described for SER experiments. The control plate (compound alone, no radiation) was left inside the anaerobic chamber at room temperature during the irradiation period. After treatment, the cells were trypsinized and suspended in usual media + 1% penicillin-streptomycin (ThermoFisher Scientific), and 10-fold serial dilutions were plated for clonogenic survival. After 10 days, plates were stained with methylene blue (2 g/L in EtOH/H2O, 1:1 v/v) and colonies with more than 50 cells were counted. The surviving fraction (SF) was determined as: SF = PE(irradiated)/PE(control) where the plating efficiency (PE) = (No. of colonies)/(No. of cells plated). SF was plotted against radiation dose. Survival ratios (SR) were calculated: SR = (cell survival with radiation)/(cell survival with drug + radiation). Sensitizer enhancement ratios (SER) were calculated: SER = (radiation dose for 1% survival without compound)/(radiation dose for 1% survival with compound).

[3] = anoxic, 4 h exposure, mean ± SEM, n = 3–4, read-out: IC50 Anoxic
[4] = oxic, 4 h exposure, mean ± SEM, n = 3–4, read-out: IC50 Oxic

## Cc1ncc([N+](=O)[O-])n1CCS(=O)(=O)NCCN1CCOCC1 [Compound 42]
FaDu cells; [3]
  IC50: 7.8 ± 0.2 mM
FaDu cells; [4]
  IC50: 9.8 ± 1.2 mM
FaDu cells
  HCR: 1.3
HCT116/54C cells [1]
  HCR: 1.8
HCT116/54C cells [1]; [3]
  IC50: 4.3 ± 0.2 mM
HCT116/54C cells [1]; [4]
  IC50: 7.6 ± 0.4 mM
UT-SCC-74B cells; [3]
  IC50: 6.6 ± 0.6 mM
UT-SCC-74B cells; [4]
  IC50: 8.9 ± 1.6 mM
UT-SCC-74B cells
  HCR: 1.4
HCT116/54C cells [2]
  SER at 1 mM: 1.16 ± 0.01

## Cc1ncc([N+](=O)[O-])n1CCS(=O)(=O)N1CCC(N(C)C)CC1 [Compound 46]
FaDu cells; [3]
  IC50: 1.3 ± 0.1 mM
FaDu cells; [4]
  IC50: 9.5 ± 2 mM
FaDu cells
  HCR: 7.3
HCT116/54C cells [1]
  HCR: 8.6
HCT116/54C cells [1]; [3]
  IC50: 2 ± 0.3 mM
HCT116/54C cells [1]; [4]
  IC50: 16.9 ± 1.4 mM
UT-SCC-74B cells; [3]
  IC50: 1.9 ± 0.2 mM
UT-SCC-74B cells; [4]
  IC50: 8.1 ± 0.9 mM
UT-SCC-74B cells
  HCR: 4.4

## Cc1ncc([N+](=O)[O-])n1CCS(=O)(=O)NCCCN1CCOCC1 [Compound 44]
FaDu cells; [3]
  IC50: 7.8 ± 0.7 mM
FaDu cells; [4]
  IC50: > 16 mM
FaDu cells
  HCR: >2.0
HCT116/54C cells [1]
  HCR: >2.0
HCT116/54C cells [1]; [3]
  IC50: 10.3 ± 1.5 mM
HCT116/54C cells [1]; [4]
  IC50: > 21 mM
UT-SCC-74B cells; [3]
  IC50: 7.1 ± 1.5 mM
UT-SCC-74B cells; [4]
  IC50: 13.2 ± 2 mM
UT-SCC-74B cells
  HCR: 1.9

## O=[N+]([O-])c1cncn1CCS(=O)(=O)NCCO [Compound 8]
FaDu cells; [3]
  IC50: 6.6 ± 0.6 mM
FaDu cells; [4]
  IC50: > 24 mM
FaDu cells
  HCR: >3.6
HCT116/54C cells [1]
  HCR: >2.4
HCT116/54C cells [1]; [3]
  IC50: 9 ± 0.9 mM
HCT116/54C cells [1]; [4]
  IC50: > 22 mM
UT-SCC-74B cells; [3]
  IC50: 10.9 ± 1.3 mM
UT-SCC-74B cells; [4]
  IC50: > 22 mM
UT-SCC-74B cells
  HCR: >2.0
HCT116/54C cells [2]
  SER at 1 mM: 1.27 ± 0.00

## COCC(O)Cn1ccnc1[N+](=O)[O-] (centres unmarked) [Compound 1, misonidazole, reference compound]
FaDu cells; 4 h, read-out: IC50 Anoxic
  IC50: 1.3 ± 0.2 mM
FaDu cells; 4 h, read-out: IC50 Oxic
  IC50: > 20 mM
FaDu cells
  HCR: >15.4
HCT116/54C cells [1]
  HCR: >16.8
HCT116/54C cells [1]; 4 h, read-out: IC50 Anoxic
  IC50: 1.5 ± 0.3 mM
HCT116/54C cells [1]; 4 h, read-out: IC50 Oxic
  IC50: > 25 mM
HCT116/54C cells [1]; read-out: hypoxic IC50
  IC50: 0.5 mM
UT-SCC-74B cells; 4 h, read-out: IC50 Anoxic
  IC50: 2.1 ± 0.6 mM
UT-SCC-74B cells; 4 h, read-out: IC50 Oxic
  IC50: > 25 mM
UT-SCC-74B cells
  HCR: >11.9
HCT116/54C cells [2]
  SER at 1 mM: 1.46 ± 0.01

## COCCNS(=O)(=O)CCn1ccnc1[N+](=O)[O-] [Compound 35]
FaDu cells; [3]
  IC50: 0.81 ± 0.12 mM
FaDu cells; [4]
  IC50: 16.5 ± 1.6 mM
FaDu cells
  HCR: 20.4
HCT116/54C cells [1]
  HCR: >16
HCT116/54C cells [1]; [3]
  IC50: 0.97 ± 0.16 mM
HCT116/54C cells [1]; [4]
  IC50: > 16 mM

## COCCNS(=O)(=O)Cn1ccnc1[N+](=O)[O-] [Compound 33]
FaDu cells; [3]
  IC50: 0.09 ± 0.01 mM
FaDu cells; [4]
  IC50: 4 ± 1.2 mM
FaDu cells
  HCR: 46.6
HCT116/54C cells [1]
  HCR: >51
HCT116/54C cells [1]; [3]
  IC50: 0.12 ± 0.002 mM
HCT116/54C cells [1]; [4]
  IC50: > 6.2 mM
UT-SCC-74B cells; [3]
  IC50: 0.19 ± 0.02 mM
UT-SCC-74B cells; [4]
  IC50: 3.7 ± 0.8 mM
UT-SCC-74B cells
  HCR: 19.9

## COCCNS(=O)(=O)CCn1c([N+](=O)[O-])cnc1C [Compound 40]
FaDu cells; [3]
  IC50: 8 ± 0.5 mM
FaDu cells; [4]
  IC50: > 22 mM
FaDu cells
  HCR: >2.7
HCT116/54C cells [1]
  HCR: >1.8
HCT116/54C cells [1]; [3]
  IC50: 11 ± 0.4 mM
HCT116/54C cells [1]; [4]
  IC50: > 20 mM

## O=[N+]([O-])c1nccn1CCS(=O)(=O)NCCN1CCOCC1 [Compound 36]
FaDu cells; [3]
  IC50: 0.69 ± 0.04 mM
FaDu cells; [4]
  IC50: 7.3 ± 0.6 mM
FaDu cells
  HCR: 10.6
HCT116/54C cells [1]
  HCR: 12.9
HCT116/54C cells [1]; [3]
  IC50: 0.71 ± 0.13 mM
HCT116/54C cells [1]; [4]
  IC50: 9.2 ± 1.1 mM
UT-SCC-74B cells; [3]
  IC50: 1.6 ± 0.3 mM
UT-SCC-74B cells; [4]
  IC50: 11.9 ± 1.5 mM
UT-SCC-74B cells
  HCR: 7.6
HCT116/54C cells [2]
  SER at 1 mM: 1.57 ± 0.00
